Key:
Type in all cases: cell-based
ACHN = test: Cell growth inhibition assay, kidney cancer cell line ACHN; settings: Homo sapiens
Protocol: (§1) The inhibitory effects of the compounds of the present invention against the growth of cancer cells were evaluated as shown below. The cancer cell lines including stomach cancer cell line (AGS), breast cancer cell lines (MDA-MB-231, MDA-MB-468, and BT-549), prostate cancer cell lines (LNCaP and DU-145), colon cancer cell line (HCT116), ovarian cancer cell line (SW626), liver cancer cell line (Hep3B), kidney cancer cell line (ACHN), lung cancer cell line (NCI-H23) and blood cancer cell lines (HEL92.1.7 and U266) were cultured under the protocol provided by each supplier. A medium supplemented with 10 ng/mL of IL-6 was used for LNCaP, a prostate cancer cell line, when treated with a drug. Each type of cells to be used in experiments were sub-cultured in a 96-well plate by counting the exact number of cells using Tali™ Image-based Cytometer (Life Technologies). In a 96-well plate, AGS, HCT116, and DU-145 were employed with 3,000 cells/well; NCI-H23, SW626, Hep3B, ACHN, BT-549, MDA-MB-231, HEL92.1.7, and U266 were employed with 5,000 cells/well; and LNCaP and MDA-MB-468 were employed with 10,000 cells/well. The cells were treated with the compounds listed in Examples which were diluted in various concentrations. Upon completion of the compounds treatment, AGS, HCT116, SW626, DU145, NCI-H23, Hep3B, ACHN, BT-549, LNCaP, HEL92.1.7, and U266 cells were cultured at 37° C. under 5% CO2 for from 72 to 96 hours, and MDA-MB-231 and MDA-MB-468 cells were cultured at 37° C. in air for from 72 to 96 hours. Subsequently, the cells were observed under microscope and drug precipitation and particular findings were investigated and recorded. And then, the 96-well plate was placed at room temperature for 30 minutes, added with 20 μL/well of CellTiter-Glo solution (Cat No. G7573, Promega) and shaken for 10 minutes, followed by being subjected to the measurement using PHERAstar™ microplate reader (BMG LABTECH) according to the supplier's general luminometer protocol. […]

STAT3 = target: T1, STAT3 (Homo sapiens, UniProt P40763); test: STAT3 reporter gene assay (luciferase), LNCaP stable cell line (pSTAT3-TA-luc), IL-6 stimulation
T1 construct: plasmid pSTAT3-TA-luc), which contains a stably operating STAT3 promoter; endogenous in cells
T1 sequence (P40763 whole entry): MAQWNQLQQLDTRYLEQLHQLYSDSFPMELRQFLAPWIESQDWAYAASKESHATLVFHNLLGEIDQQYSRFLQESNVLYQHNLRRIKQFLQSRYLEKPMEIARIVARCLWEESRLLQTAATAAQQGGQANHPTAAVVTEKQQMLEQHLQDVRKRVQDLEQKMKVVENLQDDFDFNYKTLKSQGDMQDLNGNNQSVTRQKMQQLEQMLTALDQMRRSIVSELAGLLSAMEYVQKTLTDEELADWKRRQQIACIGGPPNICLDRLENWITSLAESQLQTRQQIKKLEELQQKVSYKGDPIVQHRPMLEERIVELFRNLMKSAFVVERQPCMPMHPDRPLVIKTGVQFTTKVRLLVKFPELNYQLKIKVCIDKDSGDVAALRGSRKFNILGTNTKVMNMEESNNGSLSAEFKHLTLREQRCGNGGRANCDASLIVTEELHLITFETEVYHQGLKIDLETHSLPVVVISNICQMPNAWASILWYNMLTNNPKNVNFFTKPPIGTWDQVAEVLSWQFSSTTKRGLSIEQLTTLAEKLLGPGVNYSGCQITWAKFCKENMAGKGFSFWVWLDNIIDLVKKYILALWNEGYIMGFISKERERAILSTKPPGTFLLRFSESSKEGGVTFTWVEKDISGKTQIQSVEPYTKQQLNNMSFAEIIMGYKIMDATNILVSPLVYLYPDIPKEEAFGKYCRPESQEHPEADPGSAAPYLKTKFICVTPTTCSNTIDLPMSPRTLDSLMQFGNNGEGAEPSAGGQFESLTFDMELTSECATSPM
Procedure, shortened: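 Cytotoxicity was run on a duplicate plate with CellTiter-Glo, while the other plate gave luciferase read-outs from lysed LNCaP pSTAT3-TA-luc reporter cells. Cells were treated with graded compound concentrations plus IL-6 (10 ng/mL final) for 24–48 h in 3% DCC-FBS medium. Unstimulated and stimulated wells served as negative and positive controls.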

BT-549 = test: Cell growth inhibition assay, breast cancer cell line BT-549; settings: Homo sapiens, BT-549 breast cancer cell line
Protocol: (§2) The inhibitory effects of the compounds of the present invention against the growth of cancer cells were evaluated as shown below. The cancer cell lines including stomach cancer cell line (AGS), breast cancer cell lines (MDA-MB-231, MDA-MB-468, and BT-549), prostate cancer cell lines (LNCaP and DU-145), colon cancer cell line (HCT116), ovarian cancer cell line (SW626), liver cancer cell line (Hep3B), kidney cancer cell line (ACHN), lung cancer cell line (NCI-H23) and blood cancer cell lines (HEL92.1.7 and U266) were cultured under the protocol provided by each supplier. A medium supplemented with 10 ng/mL of IL-6 was used for LNCaP, a prostate cancer cell line, when treated with a drug. Each type of cells to be used in experiments were sub-cultured in a 96-well plate by counting the exact number of cells using Tali™ Image-based Cytometer (Life Technologies). In a 96-well plate, AGS, HCT116, and DU-145 were employed with 3,000 cells/well; NCI-H23, SW626, Hep3B, ACHN, BT-549, MDA-MB-231, HEL92.1.7, and U266 were employed with 5,000 cells/well; and LNCaP and MDA-MB-468 were employed with 10,000 cells/well. The cells were treated with the compounds listed in Examples which were diluted in various concentrations. Upon completion of the compounds treatment, AGS, HCT116, SW626, DU145, NCI-H23, Hep3B, ACHN, BT-549, LNCaP, HEL92.1.7, and U266 cells were cultured at 37° C. under 5% CO2 for from 72 to 96 hours, and MDA-MB-231 and MDA-MB-468 cells were cultured at 37° C. in air for from 72 to 96 hours. Subsequently, the cells were observed under microscope and drug precipitation and particular findings were investigated and recorded. And then, the 96-well plate was placed at room temperature for 30 minutes, added with 20 μL/well of CellTiter-Glo solution (Cat No. G7573, Promega) and shaken for 10 minutes, followed by being subjected to the measurement using PHERAstar™ microplate reader (BMG LABTECH) according to the supplier's general luminometer protocol. Wells where only culture liquid added without cell plating were used as a negative control, whereas wells where culture liquid containing 0.1% DMSO instead of the compounds listed in Examples were used as a positive control.

LNCaP = test: Cell growth inhibition assay, prostate cancer cell line LNCaP (medium with 10 ng/mL IL-6); settings: Homo sapiens, medium supplemented with 10 ng/mL of IL-6, 10,000 cells/well
AGS = test: Cell growth inhibition assay, stomach cancer cell line AGS; settings: Homo sapiens; AGS stomach cancer cell line, 3,000 cells/well
MDA-MB-231 = test: Cell growth inhibition assay, breast cancer cell line MDA-MB-231; settings: Homo sapiens; MDA-MB-231 breast cancer cell line, 5,000 cells/well
SW626 = test: Cell growth inhibition assay, ovarian cancer cell line SW626; settings: Homo sapiens
Protocol: as §1

HCT116 = test: Cell growth inhibition assay, colon cancer cell line HCT116; settings: Homo sapiens, HCT-116 colon cancer cell line
Protocol: as §1

DU-145 = test: Cell growth inhibition assay, prostate cancer cell line DU-145; settings: Homo sapiens, DU-145 prostate cancer cell line
Procedure, shortened: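 Luminescent CellTiter-Glo readout of viable cells after 72–96 h compound exposure (37° C., 5% CO2). Seeding: 3,000 cells/well for DU-145 and HCT116, 5,000 cells/well for SW626. Controls were medium without cells and 0.1% DMSO vehicle.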

MDA-MB-468 = test: Cell growth inhibition assay, breast cancer cell line MDA-MB-468; settings: Homo sapiens, MDA-MB-468 breast cancer cell line
Protocol: as §2

U266 = test: Cell growth inhibition assay, blood cancer cell line U266; settings: Homo sapiens, U-266 blood cancer cell line
Procedure, shortened: (§3)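 Cells were seeded at 3,000/well (HCT116, DU-145) or 5,000/well (SW626 and the others) and exposed to serial compound dilutions for 72 to 96 h at 37 °C under 5% CO2. Viability was read as CellTiter-Glo luminescence against 0.1% DMSO and cell-free wells.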

HEL92.1.7 = test: Cell growth inhibition assay, blood cancer cell line HEL92.1.7; settings: Homo sapiens, HEL 92.1.7, HEL92.1.7 blood cancer cell line
Procedure, shortened: as §3

Hep3B = test: Cell growth inhibition assay, liver cancer cell line Hep3B; settings: Homo sapiens
Protocol: as §2

NCI-H23 = test: Cell growth inhibition assay, lung cancer cell line NCI-H23; settings: Homo sapiens
Protocol: as §1

MDA-MB-361 = test: Cell growth inhibition assay, cell line MDA-MB-361; settings: Homo sapiens, MDA-MB-361 cells
C-33A = test: Cell growth inhibition assay, cell line C-33A; settings: Homo sapiens, C-33A cells
HCC1500 = test: Cell growth inhibition assay, cell line HCC1500; settings: HCC1500 cells
IM-9 = test: Cell growth inhibition assay, cell line IM-9; settings: Homo sapiens, IM-9 cells
NCI-H508 = test: Cell growth inhibition assay, cell line NCI-H508; settings: Homo sapiens, NCI-H508 cells
NCI-H1650 = test: Cell growth inhibition assay, cell line NCI-H1650; settings: Homo sapiens, NCI-H1650 cells
SW1417 = test: Cell growth inhibition assay, cell line SW1417; settings: Homo sapiens, SW1417 cells
NCI-H661 = test: Cell growth inhibition assay, cell line NCI-H661; settings: Homo sapiens, NCI-H661 cells
Raji = test: Cell growth inhibition assay, cell line Raji; settings: Homo sapiens, Raji cells

Row | Compound | IC50 (ACHN) [µM] | IC50 (STAT3) [µM] | IC50 (BT-549) [µM] | IC50 (LNCaP) [µM] | IC50 (AGS) [µM] | IC50 (MDA-MB-231) [µM] | IC50 (SW626) [µM] | IC50 (HCT116) [µM] | IC50 (DU-145) [µM] | IC50 (MDA-MB-468) [µM] | IC50 (U266) [µM] | IC50 (HEL92.1.7) [µM] | IC50 (Hep3B) [µM] | IC50 (NCI-H23) [µM] | further results
1 | COc1cc(OC(F)(F)F)cc(C(C)(C)c2cc(Br)cc(NC(=O)c3cc4ccc(NS(C)(=O)=O)cc4[nH]3)c2)c1 [Example 16, N-(3-bromo-5-(2-(3-methoxy-5-(trifluoromethoxy)phenyl)propan-2-yl)phenyl)-6-(methylsulfonamido)-1H-indole-2-carboxamide] | 0.004 | 0.112 | 0.26 | 0.48 | 0.044 | 0.025 | 0.066 | 0.31 | 0.024 | 0.02 | 0.25 | 0.14 | 2.1 | 0.3 | 
2 | COc1cc(OC(F)(F)F)cc(C(C)(C)c2cc(Br)cc(NC(=O)c3cc4cc(NS(C)(=O)=O)ccc4s3)c2)c1 [Example 36, N-(3-bromo-5-(2-(3-methoxy-5-(trifluoromethoxy)phenyl)propan-2-yl)phenyl)-5-(methylsulfonamido)benzo[b]thiophene-2-carboxamide] | < 0.00085 | 0.027 | 0.043 | 0.21 | 0.009 | 0.005 | 0.013 | < 0.072 | 0.006 | < 0.0076 | 0.22 | 0.27 | 2.2 | < 0.21 | 
3 | CN(c1ccc2cc(C(=O)Nc3cccc(-c4ccccc4C(F)(F)F)c3)[nH]c2c1)S(C)(=O)=O [Example 346, 6-(N-methylmethylsulfonamido)-N-(2′-(trifluoromethyl)-[1,1′-biphenyl]-3-yl)-1H-indole-2-carboxamide] | 0.37 | 0.2 | 1 | 0.463 |  | 0.18 | 0.29 | 1.5 | 0.37 | 0.14 |  | 1.3 | 2.2 | 1.7 | IC50 (MDA-MB-361): 0.28 µM; IC50 (C-33A): 0.3 µM; IC50 (HCC1500): 1.03 µM; IC50 (IM-9): 0.51 µM; IC50 (NCI-H508): 0.22 µM; IC50 (NCI-H1650): 0.62 µM; IC50 (SW1417): 0.35 µM; IC50 (NCI-H661): 0.09 µM; IC50 (Raji): 0.57 µM

Source: US10562912B2 (C&C Research Laboratories, priority 2013, dated 2020)
